# Test results reported in ChEMBL document CHEMBL1201862, “PubChem BioAssay data set” (2004).
# “And” between values parts separate entries of the source, which are not always exact repeats. Identical values can stand only once. The source made the active and inactive calls.
# Legend:
# Cytochrome P450 1A2 = biological target: T1, Cytochrome P450 1A2 (Homo sapiens, UniProt P05177);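 also: PubChem cytochrome P450 panel assay, CYP1A2 panel member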
# T1 sequence (P05177 whole entry): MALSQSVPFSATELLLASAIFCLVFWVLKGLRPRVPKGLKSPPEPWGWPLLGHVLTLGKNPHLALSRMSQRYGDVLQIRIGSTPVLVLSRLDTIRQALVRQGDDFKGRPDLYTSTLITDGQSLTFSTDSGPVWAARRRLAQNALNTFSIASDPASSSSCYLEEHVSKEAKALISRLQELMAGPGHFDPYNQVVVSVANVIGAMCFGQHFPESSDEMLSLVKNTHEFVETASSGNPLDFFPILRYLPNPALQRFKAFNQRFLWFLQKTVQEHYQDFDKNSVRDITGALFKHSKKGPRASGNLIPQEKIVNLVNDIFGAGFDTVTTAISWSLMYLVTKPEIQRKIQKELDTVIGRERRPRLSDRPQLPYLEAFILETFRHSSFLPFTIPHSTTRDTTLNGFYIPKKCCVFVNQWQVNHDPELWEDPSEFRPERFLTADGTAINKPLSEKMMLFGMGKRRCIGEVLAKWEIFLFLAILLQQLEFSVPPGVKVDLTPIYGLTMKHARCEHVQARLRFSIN
# [1] = biological target: T2, Kappa-type opioid receptor (Homo sapiens, UniProt P41145); type: functional
# T2 sequence (P41145 whole entry): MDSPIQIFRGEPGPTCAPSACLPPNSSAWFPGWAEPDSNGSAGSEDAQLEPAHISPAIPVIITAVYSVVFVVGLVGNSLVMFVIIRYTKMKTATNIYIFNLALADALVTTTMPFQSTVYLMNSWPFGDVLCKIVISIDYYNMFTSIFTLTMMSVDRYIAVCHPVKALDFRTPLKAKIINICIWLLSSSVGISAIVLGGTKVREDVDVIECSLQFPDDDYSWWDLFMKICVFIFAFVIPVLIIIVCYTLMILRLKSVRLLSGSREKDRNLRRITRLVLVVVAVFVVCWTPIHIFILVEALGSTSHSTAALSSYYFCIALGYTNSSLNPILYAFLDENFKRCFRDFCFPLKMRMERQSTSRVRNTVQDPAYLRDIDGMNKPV
# [2] = biological target: T3, Delta-type opioid receptor (Homo sapiens, UniProt P41143); assay: DOR antagonists, SAR follow-up, image-based (AID 2357); type: functional
# T3 sequence (P41143 whole entry): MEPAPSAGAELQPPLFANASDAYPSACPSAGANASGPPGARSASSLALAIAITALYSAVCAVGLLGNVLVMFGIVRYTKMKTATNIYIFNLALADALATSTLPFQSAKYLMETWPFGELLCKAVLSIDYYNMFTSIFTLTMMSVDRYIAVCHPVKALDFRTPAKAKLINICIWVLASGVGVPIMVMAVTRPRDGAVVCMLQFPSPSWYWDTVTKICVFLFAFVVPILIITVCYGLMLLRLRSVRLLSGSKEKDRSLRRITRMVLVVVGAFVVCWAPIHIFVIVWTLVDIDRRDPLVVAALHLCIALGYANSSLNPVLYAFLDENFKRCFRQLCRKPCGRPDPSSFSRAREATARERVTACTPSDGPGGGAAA
# [3] = biological target: T3, Delta-type opioid receptor; assay: HTS Image-Based Screen for Antagonists of the DOR Receptor. [Related pubchem assays (depositor defined):AID1777, AID1785, AID1786, AID2133]; type: functional
# [4] = biological target: T2, Kappa-type opioid receptor; assay: KOR antagonists by imaging, SAR follow-up, image-based (AID 2348); type: functional
# Mu-type opioid receptor [5] = biological target: T4, Mu-type opioid receptor (Homo sapiens, UniProt P35372); assay: MOR agonists by imaging, SAR follow-up, image-based (AID 2352); type: functional
# T4 sequence (P35372 whole entry): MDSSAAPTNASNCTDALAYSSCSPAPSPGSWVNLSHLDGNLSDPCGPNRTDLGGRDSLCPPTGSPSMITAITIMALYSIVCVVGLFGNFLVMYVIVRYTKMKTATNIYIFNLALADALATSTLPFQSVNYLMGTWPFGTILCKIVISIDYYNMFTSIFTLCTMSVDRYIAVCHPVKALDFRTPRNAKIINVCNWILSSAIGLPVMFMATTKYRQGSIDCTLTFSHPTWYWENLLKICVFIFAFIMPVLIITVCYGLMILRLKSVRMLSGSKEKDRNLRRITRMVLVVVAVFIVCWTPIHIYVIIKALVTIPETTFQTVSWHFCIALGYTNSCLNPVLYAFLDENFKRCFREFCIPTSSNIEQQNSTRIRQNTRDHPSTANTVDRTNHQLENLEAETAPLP
# [6] = biological target: T3, Delta-type opioid receptor; assay: HTS Image-Based Screen for Agonists of the DOR Receptor. [Related pubchem assays (depositor defined):AID1777, AID1786, AID2133]; type: functional
# [7] = biological target: T3, Delta-type opioid receptor; assay: DOR agonists, SAR follow-up, image-based (AID 2370); type: functional
# [8] = biological target: T2, Kappa-type opioid receptor; type: functional; remark: listed apart in the source
# Mu-type opioid receptor [9] = biological target: T4, Mu-type opioid receptor; assay: MOR antagonists, SAR follow-up, image-based (AID 2420); type: functional;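 also: compounds added before stimulation of receptor with agonist DAMGO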
# [10] = biological target: T2, Kappa-type opioid receptor; assay: KOR agonist analogs, imaging readout, SAR follow-up, image-based (AID 2359); type: functional
# Mu-type opioid receptor [11] = biological target: T4, Mu-type opioid receptor; assay: HTS Image-Based Screen for Agonists of the MOR Receptor. [Related pubchem assays (depositor defined):AID1777, AID1785, AID1786, AID2133]; type: functional
# [12] = biological target: T2, Kappa-type opioid receptor; assay: SAR analysis of small molecule agonists of the kappa opioid receptor via a luminescent beta-arrestin assay. [Related pubchem assays (depositor defined):AID1777, AID1786, AID1966, AID2133, AID2136, AID2348, AID2352, AID2357, AID2359, AID2370, AID2420, AID2478, AID2491, AID2492, AID2493, AID2497, AID2498, AID2500, AID449737, AID488822, AID488842]; type: functional
# [13] = inhibitors of intracellular T. cruzi replication, confirmation, NIH3T3 host cells, beta-gal luminescence (AID 2044); type: functional, cell-based;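 also: intracellular parasites grown in NIH/3T3 mouse fibroblasts as host cells; luminescent beta-galactosidase reporter signal from transgenic T. cruzi replicating inside host cells; inhibitors lower the luminescence signal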
# [14] = biological target: G-protein coupled receptor 55 (Homo sapiens, UniProt Q9Y2T6); assay: GPR55 antagonists, SAR follow-up, counter-screen for GPR35 antagonist project, imaging, image-based (AID 2397); type: functional
# G-protein coupled receptor 55, sequence (Q9Y2T6 whole entry): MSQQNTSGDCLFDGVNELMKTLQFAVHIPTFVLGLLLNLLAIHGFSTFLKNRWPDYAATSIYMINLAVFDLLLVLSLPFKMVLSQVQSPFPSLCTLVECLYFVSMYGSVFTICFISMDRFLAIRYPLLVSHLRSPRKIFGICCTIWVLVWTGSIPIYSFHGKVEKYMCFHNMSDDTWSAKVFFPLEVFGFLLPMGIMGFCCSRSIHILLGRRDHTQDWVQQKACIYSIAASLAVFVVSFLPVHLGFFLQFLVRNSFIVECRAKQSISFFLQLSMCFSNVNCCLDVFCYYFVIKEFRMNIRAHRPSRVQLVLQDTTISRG
# [15] = cytotoxicity toward NIH3T3 fibroblasts, dose response, counter-screen, cell-based, ATP luminescence, mouse fibroblasts (AID 2010); type: functional;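 also: cells exposed to compound for about 90 hours before reading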
# [16] = biological target: DNA dC->dU-editing enzyme APOBEC-3G (Homo sapiens, UniProt Q9HC16); type: functional;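 also: Dose-response counterscreen measuring inhibition of APOBEC3G DNA deaminase activity, run while confirming APOBEC3A inhibitors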
# DNA dC->dU-editing enzyme APOBEC-3G, sequence (Q9HC16 whole entry): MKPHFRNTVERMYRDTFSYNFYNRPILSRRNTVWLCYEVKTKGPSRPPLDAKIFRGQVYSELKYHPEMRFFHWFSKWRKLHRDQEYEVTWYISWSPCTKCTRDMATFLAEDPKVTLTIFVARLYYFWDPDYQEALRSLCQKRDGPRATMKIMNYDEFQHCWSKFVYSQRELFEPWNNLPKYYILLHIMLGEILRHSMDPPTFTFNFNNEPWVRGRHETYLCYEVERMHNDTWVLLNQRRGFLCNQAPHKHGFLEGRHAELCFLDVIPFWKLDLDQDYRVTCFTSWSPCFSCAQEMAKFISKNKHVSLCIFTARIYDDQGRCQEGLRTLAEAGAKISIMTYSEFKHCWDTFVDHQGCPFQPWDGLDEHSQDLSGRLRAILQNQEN
# [17] = biological target: G-protein coupled receptor 35 (Homo sapiens, UniProt Q9HC97); assay: GPR35 antagonists blocking zaprinast-driven arrestin recruitment, primary screen, imaging, U2OS, beta-arrestin-GFP, zaprinast agonist (AID 2058); type: functional;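 also: antagonist potency meaning inhibition of agonist-induced arrestin redistribution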
# G-protein coupled receptor 35, sequence (Q9HC97 whole entry): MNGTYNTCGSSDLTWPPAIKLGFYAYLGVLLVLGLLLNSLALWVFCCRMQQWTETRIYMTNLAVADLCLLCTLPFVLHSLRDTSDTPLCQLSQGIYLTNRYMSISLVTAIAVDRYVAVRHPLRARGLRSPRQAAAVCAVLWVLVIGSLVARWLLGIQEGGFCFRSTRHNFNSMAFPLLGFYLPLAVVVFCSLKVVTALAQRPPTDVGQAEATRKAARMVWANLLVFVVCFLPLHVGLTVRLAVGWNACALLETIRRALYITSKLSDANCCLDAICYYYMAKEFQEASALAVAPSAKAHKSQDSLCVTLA
# [18] = biological target: DNA dC->dU-editing enzyme APOBEC-3A (Homo sapiens, UniProt P31941); assay: Dose Response confirmation of small molecule APOBEC3A DNA Deaminase Inhibitors via a fluorescence-based single-stranded DNA deaminase assay. [Related pubchem assays (depositor defined):AID493011, AID493024]; type: functional
# DNA dC->dU-editing enzyme APOBEC-3A, sequence (P31941 whole entry): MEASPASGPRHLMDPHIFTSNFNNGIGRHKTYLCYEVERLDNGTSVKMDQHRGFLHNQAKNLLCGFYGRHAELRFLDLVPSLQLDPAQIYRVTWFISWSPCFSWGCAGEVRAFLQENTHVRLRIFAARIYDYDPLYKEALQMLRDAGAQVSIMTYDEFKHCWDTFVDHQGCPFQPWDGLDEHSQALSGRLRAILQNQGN
# Troponin, cardiac muscle = Troponin, cardiac muscle (Homo sapiens, UniProt P19429+P45379+P63316); assay: Fluorescence-based biochemical high throughput dose response assay for activators of the calcium sensitivity of cardiac Regulated Thin Filaments (RTF). [Related pubchem assays (depositor defined):AID493008, AID493018, AID504382, AID504383]; type: protein-complex assay
# INS1 = assay: beta cell apoptosis inhibitors, cytokine rescue, dose response, luminescence, retest (AID 449756); type: functional, cell-based; settings: Rattus norvegicus;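 also: cell death triggered by IL-1 beta plus TNF-alpha plus IFN-gamma mixture; protective hits raise ATP signal compared with cytokine alone wells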
# Phosphomannomutase 2 = Phosphomannomutase 2 (Homo sapiens, UniProt O15305); assay: Counter screen SAR assay for PMM2 inhibitors via a fluorescence intensity assay. [Related pubchem assays (depositor defined):AID1545, AID1574]
# Phosphomannomutase 2, sequence (O15305 whole entry): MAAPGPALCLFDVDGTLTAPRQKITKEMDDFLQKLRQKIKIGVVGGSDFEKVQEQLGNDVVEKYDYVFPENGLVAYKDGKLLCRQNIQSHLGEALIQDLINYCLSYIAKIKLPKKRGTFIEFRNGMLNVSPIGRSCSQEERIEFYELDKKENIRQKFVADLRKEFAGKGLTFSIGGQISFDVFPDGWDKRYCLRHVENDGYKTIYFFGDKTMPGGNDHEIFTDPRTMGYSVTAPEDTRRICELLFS
# [19] = biological target: T5, Mannose-6-phosphate isomerase (Homo sapiens, UniProt P34949); assay: PMI enzyme inhibitors, confirmation, biochemical, fluorescence intensity (AID 1535)
# T5 sequence (P34949 whole entry): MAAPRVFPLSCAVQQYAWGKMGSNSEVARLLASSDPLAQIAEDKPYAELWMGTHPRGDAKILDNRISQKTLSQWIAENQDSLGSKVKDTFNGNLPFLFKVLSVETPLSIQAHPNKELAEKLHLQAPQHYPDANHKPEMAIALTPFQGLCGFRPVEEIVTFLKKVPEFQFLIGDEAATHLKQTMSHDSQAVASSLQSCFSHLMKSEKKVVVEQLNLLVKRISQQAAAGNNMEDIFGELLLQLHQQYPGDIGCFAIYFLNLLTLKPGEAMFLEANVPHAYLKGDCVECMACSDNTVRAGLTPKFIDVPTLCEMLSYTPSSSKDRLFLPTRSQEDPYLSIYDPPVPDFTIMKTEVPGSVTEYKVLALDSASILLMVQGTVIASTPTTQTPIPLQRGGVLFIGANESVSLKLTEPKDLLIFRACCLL
smiles,measurement,setting,value
CC(C)CN1CC2(CCN(C(=O)c3csnn3)CC2)C1,AC50,Cytochrome P450 1A2,inactive
CCC(C)(C(=O)NC1CCCC1)N(Cc1cccs1)C(=O)c1ccccn1 (stereo not drawn),EC50,[1],1.86 µM
same,IC50,[2],> 32 µM (inactive)
same,IC50,[3],> 32 µM (inactive)
same,IC50,[4],> 32 µM (inactive)
same,EC50,Mu-type opioid receptor [5],> 32 µM (inactive)
same,EC50,[6],> 32 µM (inactive)
same,EC50,[7],> 32 µM (inactive)
same,EC50,[8],2.13 µM
same,IC50,Mu-type opioid receptor [9],> 32 µM (inactive)
same,EC50,[10],0.806 µM (active)
same,EC50,Mu-type opioid receptor [11],> 32 µM (inactive)
same,EC50,[12],2.07 µM (active)
C=CCn1c(C)c(/C=C/c2cc[n+](C)cc2)c2ccccc21,EC50,[13],0.69 µM (active)
same,IC50,[14],2.79 µM (active)
same,EC50,[15],> 60 µM (not active)
same,IC50,[16],16.3 µM (active)
same,IC50,[17],1.97 µM (active)
same,IC50,[18],> 100 µM (inactive)
same,EC50,"Troponin, cardiac muscle",1.88 µM (active)
same,AC50,INS1,6.54 µM (active)
Clc1nss/c1=N\c1nncs1,IC50,Phosphomannomutase 2,> 100 µM (inactive)
same,IC50,[19],3.1 µM (active) and 2.3 µM (active)
